Laboratory results from patent US20130101615A1, “METHODS FOR PREVENTING OR TREATING A DISEASE OR CONDITION ASSOCIATED WITH MYCOBACTERIUM AVIUM SUBSPECIES PARATUBERCULOSIS” (priority 2005, published 2013).
Like-named read-outs stand apart in the source and are kept apart here.

Legend:
[1] = tested on: MAP Dominic (ATCC 43545), isolated from human with Crohn's disease; format: cell-based, Mycobacterium avium subspecies paratuberculosis; settings: vs 3.2% DMSO control
MAP ATCC 19698 (bovine) = format: cell-based, Mycobacterium avium subspecies paratuberculosis; settings: Bovine MAP 19698, vs 3.2% DMSO control
[2] = tested on: MAP UCF 4, isolated from human with Crohn's disease; test: Radiometric BACTEC growth inhibition, MAP UCF4; format: cell-based, Mycobacterium avium subspecies paratuberculosis; settings: Human MAP UCF4, vs 3.2% DMSO control
[3] = tested on: MAP 303 (ruminant with Johne's disease); test: Radiometric BACTEC growth inhibition, MAP 303; format: cell-based, Mycobacterium avium subspecies paratuberculosis; settings: Bovine MAP 303, vs 3.2% DMSO control
M. avium ATCC 25291 = format: cell-based, M. avium subspecies avium; settings: for % ΔcGI: M. avium 25291, vs 3.2% DMSO control
M. avium 101 = format: cell-based, M. avium subspecies avium; settings: for % ΔcGI: vs 3.2% DMSO control
MAP and M. avium strains = test: Radiometric BACTEC growth inhibition, all strains tested; format: cell-based, Mycobacterium avium; settings: any strain tested (MAP and M. avium)
MAP and M. tuberculosis = format: in vivo, Mice; settings: 15 μg i.p. in combination with Ag85B-ESAT-6 fusion protein, CFA then IFA; challenge at week 8

O=C1NC(=O)c2ccccc21 [Phthalimide, phthalimide]
% ΔcGI ([1]; 1 μg/ml, Human MAP Dominic Expt. 1): −3%
% ΔcGI ([1]; 1 μg/ml, Human MAP Dominic Expt. 2): −1%
% ΔcGI ([1]; 4 μg/ml, Human MAP Dominic Expt. 1): 7%
% ΔcGI ([1]; 4 μg/ml, Human MAP Dominic Expt. 2): 0%
% ΔcGI ([1]; 16 μg/ml, Human MAP Dominic Expt. 1): 0%
% ΔcGI ([1]; 16 μg/ml, Human MAP Dominic Expt. 2): 1%
% ΔcGI ([1]; 64 μg/ml, Human MAP Dominic Expt. 1): 2%
% ΔcGI ([1]; 64 μg/ml, Human MAP Dominic Expt. 2): 4%
% ΔcGI (MAP ATCC 19698 (bovine); 1 μg/ml): −2%
% ΔcGI (MAP ATCC 19698 (bovine); 4 μg/ml): −10%
% ΔcGI (MAP ATCC 19698 (bovine); 16 μg/ml): 1%
% ΔcGI (MAP ATCC 19698 (bovine); 64 μg/ml): 0%
% ΔcGI ([2]; 1 μg/ml): 4%
% ΔcGI ([2]; 4 μg/ml): −2%
% ΔcGI ([2]; 16 μg/ml): 1%
% ΔcGI ([2]; 64 μg/ml): 3%
% ΔcGI ([3]; 1 μg/ml): −2%
% ΔcGI ([3]; 4 μg/ml): 3%
% ΔcGI ([3]; 16 μg/ml): −13%
% ΔcGI ([3]; 64 μg/ml): 6%
% ΔcGI (M. avium ATCC 25291; 1 μg/ml): 2%
% ΔcGI (M. avium ATCC 25291; 4 μg/ml): 4%
% ΔcGI (M. avium ATCC 25291; 16 μg/ml): 1%
% ΔcGI (M. avium ATCC 25291; 64 μg/ml): 12%
effect on growth, in words (M. avium ATCC 25291; M. avium ATCC 25291): no dose-dependent inhibition
effect on growth, in words (M. avium 101): no dose-dependent inhibition
% ΔcGI (M. avium 101; 1 μg/ml): −3%
% ΔcGI (M. avium 101; 4 μg/ml): 4%
% ΔcGI (M. avium 101; 16 μg/ml): 2%
% ΔcGI (M. avium 101; 64 μg/ml): −2%
dose-dependent inhibition, in words (MAP and M. avium strains): no dose-dependent effect on any strain tested
dose-dependent inhibition, in words (MAP and M. avium strains; listed as phthalimide): did not exhibit a dose-dependent inhibition of any strain

B1: AhpD: Alkyl hydroperoxide reductase D, immunogenic MAP protein, recombinant antigen (protein, UniProt A0QGI9 1-178, looked up)
Alkyl hydroperoxide reductase …: MSVENLKEALPEYAKDLKLNLGSITRTTELNEEQLWGTLLASAAATRNTQVLTEIGAEAADTLSAEAYHAALGAASVMAMNNVFYRGRGFLDGKYDDLRAGLRMNIIGNPGVEKANFELWCFAVSAINGCPDCVASHEHTLREAGVSRETIQEALKAAAIISGVAQAIVTSQTLATAG
protection against infection after immunization (MAP and M. tuberculosis): elicits a response capable of protecting against MAP and M. tuberculosis infection
